# Measured values taken from ChEMBL document CHEMBL4376834, “Discovery of 4H-Chromen-4-one Derivatives as a New Class of Selective Rho Kinase (ROCK) Inhibitors, which Showed Potent Activity in ex Vivo Diabetic Retinopathy Models” (J Med Chem, 2019).
# How the values were obtained:
# [1] = target: Rho-associated protein kinase 1 (Homo sapiens, UniProt Q13464); experiment: Inhibition of recombinant human ROCK1 (17 to 535 residues) using […] as substrate incubated for 40 mins in presence of [gamma-33P]ATP and 10 uM ATP by radiometric scintillation counting analysis
# [2] = Half life in human liver microsomes measured upto 45 mins in presence of NADPH by LC-MS analysis; format: ADME, Microsome
# [3] = target: Activin receptor type-1-like (Homo sapiens, UniProt P37023); experiment: Inhibition of human recombinant ALK1 (142 to end residues) using casein as substrate incubated for 40 mins in presence of [gamma-33P]ATP by radiometric scintillation counting analysis
# Activin receptor type-1-like, sequence (P37023 whole entry): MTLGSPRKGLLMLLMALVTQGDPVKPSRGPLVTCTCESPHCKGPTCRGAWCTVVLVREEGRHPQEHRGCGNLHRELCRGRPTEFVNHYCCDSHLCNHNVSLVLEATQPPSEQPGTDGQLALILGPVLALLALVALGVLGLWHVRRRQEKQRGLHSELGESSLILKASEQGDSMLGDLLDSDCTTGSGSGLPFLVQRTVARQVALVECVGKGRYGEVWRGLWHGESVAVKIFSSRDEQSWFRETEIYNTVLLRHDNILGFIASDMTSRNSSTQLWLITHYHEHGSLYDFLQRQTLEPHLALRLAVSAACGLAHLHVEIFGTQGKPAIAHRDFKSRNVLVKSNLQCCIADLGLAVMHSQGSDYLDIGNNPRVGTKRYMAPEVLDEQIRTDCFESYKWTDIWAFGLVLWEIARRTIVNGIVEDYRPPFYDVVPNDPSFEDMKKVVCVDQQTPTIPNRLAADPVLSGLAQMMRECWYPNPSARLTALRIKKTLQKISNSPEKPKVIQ
# [4] = target: Serine/threonine-protein kinase A-Raf (Homo sapiens, UniProt P10398); experiment: Inhibition of human recombinant A-Raf (273 to end residues) using myelin as substrate incubated for 40 mins in presence of [gamma-33ATP] by radiometric scintillation counting analysis
# [5] = target: Tyrosine-protein kinase BTK (Homo sapiens, UniProt Q06187, R28H); experiment: Inhibition of recombinant full length human BTK R28H mutant using KVEKIGEGTYGVV substrate incubated for 40 mins in presence of [gamma-33ATP] by radiometric scintillation counting analysis
# Tyrosine-protein kinase BTK, sequence (Q06187 2-659 R28H limits assumed): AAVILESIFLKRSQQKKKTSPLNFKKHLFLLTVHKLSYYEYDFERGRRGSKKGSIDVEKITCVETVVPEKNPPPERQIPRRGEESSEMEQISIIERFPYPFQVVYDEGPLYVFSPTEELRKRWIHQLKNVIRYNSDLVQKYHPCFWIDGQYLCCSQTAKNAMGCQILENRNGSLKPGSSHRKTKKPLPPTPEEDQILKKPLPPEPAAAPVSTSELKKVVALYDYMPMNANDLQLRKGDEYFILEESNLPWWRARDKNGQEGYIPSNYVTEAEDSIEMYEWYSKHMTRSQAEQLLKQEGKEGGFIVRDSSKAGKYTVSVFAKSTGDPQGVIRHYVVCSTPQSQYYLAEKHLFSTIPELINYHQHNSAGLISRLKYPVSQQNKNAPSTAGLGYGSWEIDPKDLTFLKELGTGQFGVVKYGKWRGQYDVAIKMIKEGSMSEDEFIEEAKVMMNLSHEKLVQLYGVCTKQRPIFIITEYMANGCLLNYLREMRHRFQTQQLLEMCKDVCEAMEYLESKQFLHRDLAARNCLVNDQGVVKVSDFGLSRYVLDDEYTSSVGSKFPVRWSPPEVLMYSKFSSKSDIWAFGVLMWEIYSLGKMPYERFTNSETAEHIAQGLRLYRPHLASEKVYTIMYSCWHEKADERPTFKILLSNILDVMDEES
# [6] = target: Serine/threonine-protein kinase B-raf (Homo sapiens, UniProt P15056); experiment: Inhibition of recombinant full length human B-Raf (416 to end residues) using myelin basic protein substrate incubated for 40 mins in presence of [gamma-33ATP] by radiometric scintillation counting analysis
# Serine/threonine-protein kinase B-raf (Homo sapiens, UniProt P15056), sequence (P15056 whole entry): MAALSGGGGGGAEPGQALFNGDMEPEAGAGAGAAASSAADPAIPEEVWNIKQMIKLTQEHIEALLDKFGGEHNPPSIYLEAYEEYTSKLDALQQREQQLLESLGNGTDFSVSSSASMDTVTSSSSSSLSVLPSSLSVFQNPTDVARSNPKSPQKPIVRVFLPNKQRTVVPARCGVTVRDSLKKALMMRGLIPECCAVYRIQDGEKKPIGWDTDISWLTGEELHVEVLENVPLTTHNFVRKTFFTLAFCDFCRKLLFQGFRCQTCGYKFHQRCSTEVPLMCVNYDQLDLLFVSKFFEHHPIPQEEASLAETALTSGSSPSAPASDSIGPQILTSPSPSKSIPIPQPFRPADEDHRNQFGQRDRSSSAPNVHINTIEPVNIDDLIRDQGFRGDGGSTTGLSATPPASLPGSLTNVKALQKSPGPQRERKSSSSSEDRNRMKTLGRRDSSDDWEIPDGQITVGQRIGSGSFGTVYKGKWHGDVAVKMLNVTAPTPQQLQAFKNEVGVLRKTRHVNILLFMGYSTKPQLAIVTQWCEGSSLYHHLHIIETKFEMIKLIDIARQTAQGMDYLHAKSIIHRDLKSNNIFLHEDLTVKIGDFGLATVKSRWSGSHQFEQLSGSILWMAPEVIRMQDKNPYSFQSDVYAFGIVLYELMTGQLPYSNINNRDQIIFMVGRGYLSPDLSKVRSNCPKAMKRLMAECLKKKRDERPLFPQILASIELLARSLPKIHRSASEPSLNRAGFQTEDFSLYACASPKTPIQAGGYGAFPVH
# [7] = target: Serine/threonine-protein kinase B-raf (Homo sapiens, UniProt P15056, V600E); experiment: Inhibition of recombinant full length human B-Raf V599E mutant (416 to end residues) using myelin basic protein as substrate incubated for 40 mins in presence of [gamma-33ATP] by radiometric scintillation counting analysis
# [8] = target: Calcium/calmodulin-dependent protein kinase kinase 1 (Homo sapiens, UniProt Q8N5S9); experiment: Inhibition of recombinant full length human CaMKK1 using calmodulin as substrate incubated for 40 mins in presence of [gamma-33ATP] by radiometric scintillation counting analysis
# CDK9/cyclin T1 = CDK9/cyclin T1 (Homo sapiens, UniProt P50750); experiment: Inhibition of recombinant full length human CDK9/cyclinT1 using KTFCGTPEYLAPE as substrate incubated for 40 mins in presence of [gamma-33ATP] by radiometric scintillation counting analysis; format: protein-complex assay
# [9] = target: Serine/threonine-protein kinase Chk1 (Homo sapiens, UniProt O14757); experiment: Inhibition of recombinant full length human CHK1 using KKKVSRSGLYRSP as substrate incubated for 40 mins in presence of [gamma-33ATP] by radiometric scintillation counting analysis
# Casein kinase 2 = Casein kinase 2 (Homo sapiens, UniProt P67870+P68400+P19784+Q8NEV1); experiment: Inhibition of recombinant human CK2 in presence of [gamma-33ATP] by radiometric scintillation counting analysis; format: protein assay
# [10] = target: Death-associated protein kinase 2 (Homo sapiens, UniProt Q9UIK4); experiment: Inhibition of recombinant full length human DAPK2 using Calmodulin as substrate incubated 40 mins in presence of [gamma-33ATP] by radiometric scintillation counting analysis
# Death-associated protein kinase 2, sequence (Q9UIK4 whole entry, the tested form may be a part): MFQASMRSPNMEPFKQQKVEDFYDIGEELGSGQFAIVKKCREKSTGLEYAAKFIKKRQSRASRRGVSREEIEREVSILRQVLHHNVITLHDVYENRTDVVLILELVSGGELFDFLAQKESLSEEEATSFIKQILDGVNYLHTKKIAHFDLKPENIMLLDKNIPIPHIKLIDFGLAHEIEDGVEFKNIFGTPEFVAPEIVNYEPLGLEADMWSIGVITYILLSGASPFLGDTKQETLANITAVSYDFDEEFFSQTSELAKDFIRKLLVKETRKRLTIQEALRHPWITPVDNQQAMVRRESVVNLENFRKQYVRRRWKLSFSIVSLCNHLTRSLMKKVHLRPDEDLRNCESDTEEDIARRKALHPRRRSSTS
# [11] = target: Mitogen-activated protein kinase kinase kinase 9 (Homo sapiens, UniProt P80192); experiment: Inhibition of recombinant human MLK1 (134 to 414 residues) using casein as substrate incubated for 40 mins in presence of [gamma-33ATP by radiometric scintillation counting analysis
# Mitogen-activated protein kinase kinase kinase 9, sequence (P80192 whole entry, the tested form may be a part): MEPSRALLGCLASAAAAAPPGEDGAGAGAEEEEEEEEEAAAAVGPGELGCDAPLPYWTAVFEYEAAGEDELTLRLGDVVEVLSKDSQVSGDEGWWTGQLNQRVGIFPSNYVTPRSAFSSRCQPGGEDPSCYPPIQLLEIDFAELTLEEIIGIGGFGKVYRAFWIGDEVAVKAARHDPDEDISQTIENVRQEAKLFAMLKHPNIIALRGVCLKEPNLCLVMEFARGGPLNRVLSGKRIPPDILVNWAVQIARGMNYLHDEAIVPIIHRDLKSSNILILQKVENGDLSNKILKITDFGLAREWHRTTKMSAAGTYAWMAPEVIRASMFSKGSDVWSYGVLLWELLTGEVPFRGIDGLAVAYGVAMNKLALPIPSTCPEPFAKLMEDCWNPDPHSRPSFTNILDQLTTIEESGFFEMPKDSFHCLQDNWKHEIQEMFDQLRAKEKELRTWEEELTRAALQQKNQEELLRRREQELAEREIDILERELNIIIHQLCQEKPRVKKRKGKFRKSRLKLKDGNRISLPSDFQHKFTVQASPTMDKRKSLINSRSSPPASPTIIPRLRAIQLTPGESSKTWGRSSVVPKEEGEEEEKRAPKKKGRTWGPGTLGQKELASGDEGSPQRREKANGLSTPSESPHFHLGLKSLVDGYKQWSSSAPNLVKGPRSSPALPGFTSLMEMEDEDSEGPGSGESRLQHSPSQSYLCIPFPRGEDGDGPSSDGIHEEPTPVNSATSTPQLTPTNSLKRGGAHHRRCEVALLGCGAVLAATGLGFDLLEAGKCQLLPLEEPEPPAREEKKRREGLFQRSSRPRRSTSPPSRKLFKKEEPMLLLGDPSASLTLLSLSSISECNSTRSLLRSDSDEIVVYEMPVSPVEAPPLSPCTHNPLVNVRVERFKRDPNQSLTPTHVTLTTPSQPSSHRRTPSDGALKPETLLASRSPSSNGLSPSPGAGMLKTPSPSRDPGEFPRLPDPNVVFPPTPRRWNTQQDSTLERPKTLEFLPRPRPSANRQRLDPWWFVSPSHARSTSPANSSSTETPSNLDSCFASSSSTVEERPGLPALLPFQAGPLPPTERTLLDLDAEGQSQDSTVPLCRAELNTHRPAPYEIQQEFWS
# [12] = target: Mitogen-activated protein kinase kinase kinase 10 (Homo sapiens, UniProt Q02779); experiment: Inhibition of recombinant human MLK2 (1 to 499 residues) using myelin basic protein as substrate incubated for 40 mins in presence of [gamma-33ATP by radiometric scintillation counting analysis
# [13] = target: Serine/threonine-protein kinase 3 (Homo sapiens, UniProt Q13188); experiment: Inhibition of recombinant human MST2 (2 to end residues) using myelin basic protein as substrate measured after 40 mins in presence of [gamma33P]ATP by radiometric scintillation counting analysis
# [14] = target: Serine/threonine-protein kinase PAK 5 (Homo sapiens, UniProt Q9P286); experiment: Inhibition of recombinant human PAK5 (425 to end residues) using RRRLSFAEPG as substrate measured after 40 mins in presence of [gamma33P]ATP by radiometric scintillation counting analysis
# Serine/threonine-protein kinase PAK 5, sequence (Q9P286 whole entry): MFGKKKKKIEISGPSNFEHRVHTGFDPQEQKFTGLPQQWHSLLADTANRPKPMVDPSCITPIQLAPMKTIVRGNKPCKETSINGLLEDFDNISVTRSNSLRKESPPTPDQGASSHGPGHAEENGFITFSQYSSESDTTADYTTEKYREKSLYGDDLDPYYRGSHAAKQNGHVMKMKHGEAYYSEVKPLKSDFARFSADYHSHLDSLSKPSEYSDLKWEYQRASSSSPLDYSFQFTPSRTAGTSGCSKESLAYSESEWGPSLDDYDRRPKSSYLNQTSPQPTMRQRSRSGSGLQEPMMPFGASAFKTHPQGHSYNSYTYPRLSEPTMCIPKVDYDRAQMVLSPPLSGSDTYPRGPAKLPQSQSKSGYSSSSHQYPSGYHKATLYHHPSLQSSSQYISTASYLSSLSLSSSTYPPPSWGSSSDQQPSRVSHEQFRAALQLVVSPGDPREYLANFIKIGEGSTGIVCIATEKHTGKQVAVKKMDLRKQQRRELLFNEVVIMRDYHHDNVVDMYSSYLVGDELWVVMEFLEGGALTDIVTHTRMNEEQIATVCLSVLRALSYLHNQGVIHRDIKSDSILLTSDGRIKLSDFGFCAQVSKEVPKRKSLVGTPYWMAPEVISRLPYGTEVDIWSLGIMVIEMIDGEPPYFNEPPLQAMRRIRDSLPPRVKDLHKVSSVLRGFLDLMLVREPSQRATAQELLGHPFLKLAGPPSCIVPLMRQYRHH
# [15] = target: Serine/threonine-protein kinase PAK 4 (Homo sapiens, UniProt O96013); experiment: Inhibition of recombinant human PAK4 (295 to end residues) using myelin basic protein as substrate measured after 40 mins in presence of [gamma33P]ATP by radiometric scintillation counting analysis
# Rhodopsin kinase GRK1 = Rhodopsin kinase GRK1 (Homo sapiens, UniProt Q15835); experiment: Inhibition of recombinant full length human GRK1 using KKKKERLLDDRHD as substrate after 40 mins in presence of [gamma-33ATP] by radiometric scintillation counting analysis
# [16] = target: Mitogen-activated protein kinase 11 (Homo sapiens, UniProt Q15759); experiment: Inhibition of recombinant human full length SAPK2b using myelin basic protein as substrate incubated for 40 mins in presence of [gamma33P]ATP by radiometric scintillation counting analysis
# [17] = target: Mitogen-activated protein kinase 13 (Homo sapiens, UniProt O15264); experiment: Inhibition of recombinant human full length SAPK4 using myelin basic protein as substrate incubated for 40 mins in presence of [gamma33P]ATP by radiometric scintillation counting analysis
# Mitogen-activated protein kinase 13, sequence (O15264 whole entry, the tested form may be a part): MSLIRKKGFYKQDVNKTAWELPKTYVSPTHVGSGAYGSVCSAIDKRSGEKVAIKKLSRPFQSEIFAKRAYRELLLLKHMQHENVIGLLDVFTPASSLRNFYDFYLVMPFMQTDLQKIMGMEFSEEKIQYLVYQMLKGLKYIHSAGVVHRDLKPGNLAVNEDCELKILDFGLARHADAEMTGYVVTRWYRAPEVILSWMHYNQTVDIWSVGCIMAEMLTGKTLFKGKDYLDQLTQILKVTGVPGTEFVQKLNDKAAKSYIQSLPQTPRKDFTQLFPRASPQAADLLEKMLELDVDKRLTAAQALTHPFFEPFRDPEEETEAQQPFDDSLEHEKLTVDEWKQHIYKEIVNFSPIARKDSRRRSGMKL
# [18] = Inhibition of human SNRK E97G/P116A double mutant (65 to 409 residues) using KKLRRTLSFAEPG as substrate incubated for 40 mins in presence of [gamma33P]ATP by radiometric scintillation counting analysis
# [19] = target: Serine/threonine-protein kinase 32B (Homo sapiens, UniProt Q9NY57); experiment: Inhibition of recombinant human full length STK32B using casein as substrate incubated for 40 mins in presence of [gamma33P]ATP by radiometric scintillation counting analysis
# [20] = target: Serine/threonine-protein kinase 33 (Homo sapiens, UniProt Q9BYT3); experiment: Inhibition of recombinant full-length human STK33 using myelin basic protein as substrate incubated for 40 mins in presence of [gamma33P]ATP by radiometric scintillation counting analysis
# Serine/threonine-protein kinase 33, sequence (Q9BYT3 whole entry): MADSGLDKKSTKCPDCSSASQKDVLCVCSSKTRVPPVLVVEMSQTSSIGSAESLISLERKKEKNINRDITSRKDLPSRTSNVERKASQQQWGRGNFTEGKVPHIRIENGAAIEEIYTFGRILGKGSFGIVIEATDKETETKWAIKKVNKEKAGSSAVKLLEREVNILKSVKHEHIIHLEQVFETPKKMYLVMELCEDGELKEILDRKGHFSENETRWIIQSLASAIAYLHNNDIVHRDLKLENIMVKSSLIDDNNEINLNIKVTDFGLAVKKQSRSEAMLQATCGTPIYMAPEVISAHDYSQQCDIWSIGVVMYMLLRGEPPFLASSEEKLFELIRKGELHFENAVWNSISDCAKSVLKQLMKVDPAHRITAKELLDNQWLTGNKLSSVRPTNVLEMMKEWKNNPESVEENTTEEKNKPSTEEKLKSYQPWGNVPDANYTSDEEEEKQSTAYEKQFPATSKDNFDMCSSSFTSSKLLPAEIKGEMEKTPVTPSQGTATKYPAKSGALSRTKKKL
# [21] = Inhibition of recombinant human TIE2 Q939H/Q940H/ R849W triple mutant (771 to end residues) using EFPIYDFLPAKKK as substrate incubated for 40 mins in presence of [gamma33P]ATP by radiometric scintillation counting analysis
# [22] = target: Death-associated protein kinase 3 (Homo sapiens, UniProt O43293); experiment: Inhibition of recombinant human ZIPK (1 to 290 residues) using KKLNRTLSFAEPG substrate incubated for 40 mins in presence of [gamma33P]ATP by radiometric scintillation counting analysis
# PI3K p110 beta/p85 alpha = PI3K p110 beta/p85 alpha (Homo sapiens, UniProt P42338); experiment: Inhibition of recombinant human full length PI3K p110beta/p85alpha using phosphatidylinositol-4, 5-bisphosphate as substrate incubated for 40 mins in presence of [gamma33P]ATP by radiometric scintillation counting analysis; format: protein-complex assay
# [23] = Inhibition of human PIP5K1
smiles,measurement,setting,value
CN(C)c1ccc(C(=O)Nc2cccc(NC(=O)COc3ccc4c(=O)ccoc4c3)c2)cc1,IC50,[1],0.014 µM
same,half-life,[2],8.05 min
same,IC50,[3],> 10 µM
same,IC50,[4],> 10 µM
same,IC50,[5],> 10 µM
same,IC50,[6],> 10 µM
same,IC50,[7],> 10 µM
same,IC50,[8],> 10 µM
same,IC50,CDK9/cyclin T1,> 10 µM
same,IC50,[9],> 10 µM
same,IC50,Casein kinase 2,> 10 µM
same,IC50,[10],> 10 µM
same,IC50,[11],> 10 µM
same,IC50,[12],> 10 µM
same,IC50,[13],> 10 µM
same,IC50,[14],> 10 µM
same,IC50,[15],> 10 µM
same,IC50,Rhodopsin kinase GRK1,> 10 µM
same,IC50,[16],> 10 µM
same,IC50,[17],> 10 µM
same,IC50,[18],> 10 µM
same,IC50,[19],> 10 µM
same,IC50,[20],> 10 µM
same,IC50,[21],> 10 µM
same,IC50,[22],> 10 µM
same,IC50,PI3K p110 beta/p85 alpha,> 10 µM
same,IC50,[23],> 10 µM
